Measurements taken from US12338237B2, “Derivatives having 1,2,3,4-tetrahydronaphthalene moiety or pharmaceutically acceptable salt thereof and pharmaceutical compositions comprising the same” (YUHAN CORPORATION, priority 2019, dated 2025).
Like-named read-outs stand apart in the source and are kept apart here.

Key:
[1] = target: glucosylceramide synthase (GCS) (Homo sapiens (Human), UniProt Q16739); experiment: Evaluation of inhibitory activities against GCS (enzyme reaction with A549 cell lysate, NBD C6-ceramide, HPLC fluorescence); format: biochemical; conditions: GCS activity in A549 cell lysate, 37° C. for 90 minutes
Chain of glucosylceramide synthase (GCS) (Q16739 whole entry, looked up): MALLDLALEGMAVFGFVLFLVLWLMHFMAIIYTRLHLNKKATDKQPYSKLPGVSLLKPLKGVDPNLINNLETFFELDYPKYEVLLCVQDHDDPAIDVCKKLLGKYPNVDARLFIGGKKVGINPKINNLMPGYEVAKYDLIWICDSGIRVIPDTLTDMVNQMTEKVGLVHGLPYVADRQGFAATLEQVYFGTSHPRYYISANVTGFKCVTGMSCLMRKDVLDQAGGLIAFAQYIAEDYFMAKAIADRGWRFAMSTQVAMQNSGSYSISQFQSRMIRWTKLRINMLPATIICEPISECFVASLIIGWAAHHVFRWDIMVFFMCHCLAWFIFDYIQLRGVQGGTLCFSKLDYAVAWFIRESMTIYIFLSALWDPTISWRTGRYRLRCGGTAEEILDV
Procedure, shortened: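 Lysate of A549 cells in 50 mM HEPES pH 7.3 incubated with test compound and NBD C6-ceramide at 37 °C for 90 min; lipids extracted with chloroform/methanol and GlcCer and ceramide peaks quantified by HPLC fluorescence. Activity from GlcCer area fraction, normalised between DMSO and ibiglustat controls.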

[2] = tested on: GM1 production; experiment: cells; format: cell-based

SMILES | IC50 [1] [µM] | IC50 ([2]; Homo sapiens, Jurkat, 72 h) [µM] | IC50 ([2]; read-out: IC50) [µM]
CC(C)(C)c1cccc(-c2ccc3c(c2)CCC2(CC2)C3NC(=O)O[C@@H]2CN3CCC2CC3)c1 (stereo partly drawn) [Example 204, (S)-quinuclidin-3-yl (6′-(3-(tert-butyl)phenyl)-3′,4′-dihydro-1′H-spiro[cyclopropane-1,2′-naphthalen]-1′-yl)carbamate] | 0.0384 | 0.0929 | –
CC(C)c1cccc(-c2ccc3c(c2)CCC2(CC2)C3NC(=O)O[C@@H]2CN3CCC2CC3)c1 (stereo partly drawn) [Example 205, (S)-quinuclidin-3-yl (6′-(3-isopropylphenyl)-3′,4′-dihydro-1′H-spiro[cyclopropane-1,2′-naphthalen]-1′-yl)carbamate] | 0.0342 | 0.0443 | –
O=C(NC1c2ccc(-c3cccc(C(F)F)c3)cc2CCC12CC2)O[C@@H]1CN2CCC1CC2 (stereo partly drawn) [Example 206, (S)-quinuclidin-3-yl (6′-(3-(difluoromethyl)phenyl)-3′,4′-dihydro-1′H-spiro[cyclopropane-1,2′-naphthalen]-1′-yl)carbamate] | 0.0102 | 0.0152 | –
CN(C)c1cccc(-c2ccc3c(c2)CCC2(CC2)C3NC(=O)O[C@@H]2CN3CCC2CC3)c1 (stereo partly drawn) [Example 207, (S)-quinuclidin-3-yl (6′-(3-(dimethylamino)phenyl)-3′,4′-dihydro-1′H-spiro[cyclopropane-1,2′-naphthalen]-1′-yl)carbamate] | 0.0232 | 0.0573 | –
CC(C)Oc1cccc(-c2ccc3c(c2)CCC2(CC2)C3NC(=O)O[C@@H]2CN3CCC2CC3)c1 (stereo partly drawn) [Example 208, (S)-quinuclidin-3-yl (6′-(3-isopropoxyphenyl)-3′,4′-dihydro-1′H-spiro[cyclopropane-1,2′-naphthalen]-1′-yl)carbamate] | 0.0212 | 0.0477 | –
COc1cccc(-c2ccc3c(c2)CCC2(CC2)C3NC(=O)O[C@@H]2CN3CCC2CC3)c1OC (stereo partly drawn) [Example 209, (S)-quinuclidin-3-yl (6′-(2,3-dimethoxyphenyl)-3′,4′-dihydro-1′H-spiro[cyclopropane-1,2′-naphthalen]-1′-yl)carbamate] | 0.0152 | 0.047 | –
COc1ccc(-c2ccc3c(c2)CCC2(CC2)C3NC(=O)O[C@@H]2CN3CCC2CC3)c(OC)c1 (stereo partly drawn) [Example 210, (S)-quinuclidin-3-yl (6′-(2,4-dimethoxyphenyl)-3′,4′-dihydro-1′H-spiro[cyclopropane-1,2′-naphthalen]-1′-yl)carbamate] | 0.0236 | 0.0442 | –
COc1ccc(OC)c(-c2ccc3c(c2)CCC2(CC2)C3NC(=O)O[C@@H]2CN3CCC2CC3)c1 (stereo partly drawn) [Example 211, (S)-quinuclidin-3-yl (6′-(2,5-dimethoxyphenyl)-3′,4′-dihydro-1′H-spiro[cyclopropane-1,2′-naphthalen]-1′-yl)carbamate] | 0.0276 | 0.147 | –
COc1cccc(OC)c1-c1ccc2c(c1)CCC1(CC1)C2NC(=O)O[C@@H]1CN2CCC1CC2 (stereo partly drawn) [Example 212, (S)-quinuclidin-3-yl (6′-(2,6-dimethoxyphenyl)-3′,4′-dihydro-1′H-spiro[cyclopropane-1,2′-naphthalen]-1′-yl)carbamate] | 0.104 | 0.221 | –
COc1ccc(-c2ccc3c(c2)CCC2(CC2)C3NC(=O)O[C@@H]2CN3CCC2CC3)cc1OC (stereo partly drawn) [Example 213, (S)-quinuclidin-3-yl (6′-(3,4-dimethoxyphenyl)-3′,4′-dihydro-1′H-spiro[cyclopropane-1,2′-naphthalen]-1′-yl)carbamate] | 0.0342 | 0.145 | –
COc1cc(OC)cc(-c2ccc3c(c2)CCC2(CC2)C3NC(=O)O[C@@H]2CN3CCC2CC3)c1 (stereo partly drawn) [Example 214, (S)-quinuclidin-3-yl (6′-(3,5-dimethoxyphenyl)-3′,4′-dihydro-1′H-spiro[cyclopropane-1,2′-naphthalen]-1′-yl)carbamate] | 0.0326 | 0.0623 | –
COc1ccc(-c2ccc3c(c2)CCC2(CC2)C3NC(=O)O[C@@H]2CN3CCC2CC3)cc1 (stereo partly drawn) [Example 215, (S)-quinuclidin-3-yl (6′-(4-methoxyphenyl)-3′,4′-dihydro-1′H-spiro[cyclopropane-1,2′-naphthalen]-1′-yl) carbamate] | 0.00235 | – | 0.0573
COc1cccc(-c2ccc3c(c2)CCC2(CC2)C3NC(=O)O[C@@H]2CN3CCC2CC3)c1 (stereo partly drawn) [Example 216, (S)-quinuclidin-3-yl (6′-(3-methoxyphenyl)-3′,4′-dihydro-1′H-spiro[cyclopropane-1,2′-naphthalen]-1′-yl) carbamate] | 0.0122 | – | 0.115
CCOc1ccc(-c2ccc3c(c2)CCC2(CC2)C3NC(=O)O[C@@H]2CN3CCC2CC3)cc1 (stereo partly drawn) [Example 217, (S)-quinuclidin-3-yl (6′-(4-ethoxyphenyl)-3′,4′-dihydro-1′H-spiro[cyclopropane-1,2′-naphthalen]-1′-yl)carbamate] | 0.00101 | 0.0158 | –
CCOc1cccc(-c2ccc3c(c2)CCC2(CC2)C3NC(=O)O[C@@H]2CN3CCC2CC3)c1 (stereo partly drawn) [Example 218, (S)-quinuclidin-3-yl (6′-(3-ethoxyphenyl)-3′,4′-dihydro-1′H-spiro[cyclopropane-1,2′-naphthalen]-1′-yl)carbamate] | 0.0198 | 0.0633 | –
CC(C)Oc1ccc(-c2ccc3c(c2)CCC2(CC2)C3NC(=O)O[C@@H]2CN3CCC2CC3)cc1 (stereo partly drawn) [Example 219, (S)-quinuclidin-3-yl (6′-(4-isopropoxyphenyl)-3′,4′-dihydro-1′H-spiro[cyclopropane-1,2′-naphthalen]-1′-yl)carbamate] | 0.0011 | 0.016 | –
CCCOc1ccc(-c2ccc3c(c2)CCC2(CC2)C3NC(=O)O[C@@H]2CN3CCC2CC3)cc1 (stereo partly drawn) [Example 220, (S)-quinuclidin-3-yl (6′-(4-propoxyphenyl)-3′,4′-dihydro-1′H-spiro[cyclopropane-1,2′-naphthalen]-1′-yl) carbamate] | 0.00063 | – | 0.0067
CCc1ccc(-c2ccc3c(c2)CCC2(CC2)C3NC(=O)O[C@@H]2CN3CCC2CC3)cc1 (stereo partly drawn) [Example 221, (S)-quinuclidin-3-yl (6′-(4-ethylphenyl)-3′,4′-dihydro-1′H-spiro[cyclopropane-1,2′-naphthalen]-1′-yl)carbamate] | 0.00201 | 0.0188 | –
CCCc1ccc(-c2ccc3c(c2)CCC2(CC2)C3NC(=O)O[C@@H]2CN3CCC2CC3)cc1 (stereo partly drawn) [Example 222, (S)-quinuclidin-3-yl (6′-(4-propylphenyl)-3′,4′-dihydro-1′H-spiro[cyclopropane-1,2′-naphthalen]-1′-yl)carbamate] | 0.00075 | 0.0093 | –
CC(C)c1ccc(-c2ccc3c(c2)CCC2(CC2)C3NC(=O)O[C@@H]2CN3CCC2CC3)cc1 (stereo partly drawn) [Example 223, (S)-quinuclidin-3-yl (6′-(4-isopropylphenyl)-3′,4′-dihydro-1′H-spiro[cyclopropane-1,2′-naphthalen]-1′-yl)carbamate] | 0.0024 | 0.0241 | –
CC(C)Cc1ccc(-c2ccc3c(c2)CCC2(CC2)C3NC(=O)O[C@@H]2CN3CCC2CC3)cc1 (stereo partly drawn) [Example 224, (S)-quinuclidin-3-yl (6′-(4-isobutylphenyl)-3′,4′-dihydro-1′H-spiro[cyclopropane-1,2′-naphthalen]-1′-yl)carbamate] | 0.00153 | 0.0067 | –
CC(C)(C)c1ccc(-c2ccc3c(c2)CCC2(CC2)C3NC(=O)O[C@@H]2CN3CCC2CC3)cc1 (stereo partly drawn) [Example 225, (S)-quinuclidin-3-yl (6′-(4-(tert-butyl)phenyl)-3′,4′-dihydro-1′H-spiro[cyclopropane-1,2′-naphthalen]-1′-yl)carbamate] | 0.00655 | 0.0224 | –
O=C(NC1c2ccc(-c3ccc(C4CC4)cc3)cc2CCC12CC2)O[C@@H]1CN2CCC1CC2 (stereo partly drawn) [Example 226, (S)-quinuclidin-3-yl (6′-(4-cyclopropylphenyl)-3′,4′-dihydro-1′H-spiro[cyclopropane-1,2′-naphthalen]-1′-yl)carbamate] | 0.00093 | 0.0108 | –
COc1ccc(-c2cc3c(cc2F)C(NC(=O)O[C@@H]2CN4CCC2CC4)C(C)(C)CC3)cc1F (stereo partly drawn) [Example 227, (S)-quinuclidin-3-yl (7-fluoro-6-(3-fluoro-4-methoxyphenyll)-2,2-dimethyl-1,2,3,4-tetrahydronaphthalen-1-yl)carbamate] | 0.0005 | – | 0.0128
CCCOc1c(C)cc(-c2cc3c(cc2F)C(NC(=O)O[C@@H]2CN4CCC2CC4)C(C)(C)CC3)cc1C (stereo partly drawn) [Example 228] | 0.00134 | – | 0.0125
CCCc1ccc(-c2cc3c(cc2F)C(NC(=O)O[C@@H]2CN4CCC2CC4)C(C)(C)CC3)cc1 (stereo partly drawn) [Example 229, (S)-quinuclidin-3-yl (7-fluoro-2,2-dimethyl-6-(4-propylphenyl)-1,2,3,4-tetrahydronaphthalen-1-yl)carbamate] | 0.00031 | 0.0017 | –
CC(C)Cc1ccc(-c2cc3c(cc2F)C(NC(=O)O[C@@H]2CN4CCC2CC4)C(C)(C)CC3)cc1 (stereo partly drawn) [Example 230, (S)-quinuclidin-3-yl (7-fluoro-6-(4-isobutylphenyl)-2,2-dimethyl-1,2,3,4-tetrahydronaphthalen-1-yl)carbamate] | 0.0003 | 0.0018 | –
CC(C)(C)Oc1cc(-c2cc3c(cc2F)C(NC(=O)O[C@@H]2CN4CCC2CC4)C(C)(C)CC3)ccn1 (stereo partly drawn) [Example 231] | 0.00086 | – | 0.0038
CC(C)Oc1ccc(-c2cc3c(cc2F)C(NC(=O)O[C@@H]2CN4CCC2CC4)C(C)(C)CC3)cc1 (stereo partly drawn) [Example 232, (S)-quinuclidin-3-yl (7-fluoro-6-(4-isopropoxyphenyl)-2,2-dimethyl-1,2,3,4-tetrahydronaphthalen-1-yl)carbamate] | 0.00029 | 0.0027 | –
COc1ccc(-c2cc3c(cc2OC)C(NC(=O)O[C@@H]2CN4CCC2CC4)C(C)(C)CC3)cc1F (stereo partly drawn) [Example 233, (S)-quinuclidin-3-yl (6-(3-fluoro-4-methoxyphenyl)-7-methoxy-2,2-dimethyl-1,2,3,4-tetrahydronaphthalen-1-yl)carbamate] | 0.00065 | 0.0217 | –
